Tests used:
[1] = system: layer 5 pyramidal neurons; assay: Electrophysiology, current clamp of layer 5 pyramidal neurons in mPFC slices; type: cell-based, mouse; conditions: bath application, Compound D at 10 μM; for after hyperpolarization (AHP) / resting membrane potential (RMP): carbachol 10 M [sic] for 10 min; for after depolarization (ADP): carbachol for 10 min as printed
Procedure: Experiments were performed on coronal brain slices of the medial prefrontal cortex (mPFC) from 4-week-old male C57BL/6 mice. The animals were quickly sacrificed and the brain was placed in an ice-cold NMDG artificial cerebrospinal fluid (ACSF) (in mM): NMDG, 92; KCl, 2.5; CaCl2, 0.5; NaH2PO4, 1.25; MgSO4, 6; NaHCO3, 30; glucose, 25; HEPES, 20; thiourea, 2; Na-ascorbate, 5; and Na-pyruvate, 3) (Ting J. T. et al., Methods Mol Biol. 2014; 1183:221-42). Slices were cut at a thickness of 300 μm with a vibroslicer. Slices were initially transferred to a holding chamber containing NMDG aCSF for 15 minutes at 34° C. Slices were then transferred to a room temperature holding chamber for at least 1 h containing HEPES aCSF (in mM): NMDG, 92; KCl, 2.5; CaCl2, 2; NaH2PO4, 1.25; MgSO4, 2; NaHCO3, 30; glucose, 25; HEPES, 20; thiourea, 2; Na-ascorbate, 5; and Na-pyruvate, 3). Subsequently, the slices were transferred to the recording chamber, in which they were submerged and perfused with aCSF containing the following (in mM): NaCl, 124; KCl, 5; NaH2PO4, 1.2; MgCl2, 1.5; CaCl2, 2.5; glucose, 10; and NaHCO3, 24), at a flow rate of 1-2 ml/min. All buffers were continuously bubbled and saturated with carbogen (95% O2/5% CO2). Current clamp recordings were carried out at 32-33° C. from visually identified pyramidal neurons from layer 5 using a borosilicate pipette (5-7 MΩ) filled with intracellular solution (in mM): K-gluconate, 135; KCl, 4; HEPES, 10; EGTA, 0.2; MgATP, 4; Na2GTP, 0.3; pH 7.3 with KOH). Signals were acquired using a Multiclamp 700B amplifier and a Digidata 1440A interface board (Molecular Devices Japan, Tokyo, Japan), filtered between 2 kHz, sampled at 10 kHz, and analyzed with pClamp10 software.
M1Rs are known to contribute to the three cholinergic effects in layer 5 pyramidal neurons: the resting membrane potential (RMP) and physiological responses such as the after hyperpolarization (AHP) the after depolarization (ADP) that typically follow brief periods of action potential generation (Gulledge et al., J. Neurosci. 2009 Aug. 5; 29(31): 9888-9902). To investigate effects of M1 PAMs with different n value on brain function, cholinergic excitation by Compound D and Compound C were assessed. First, the muscarinic receptor agonist carbachol ([…] for 10 min) was tested by bath application (FIG. 13-A, FIG. 13-B, FIG. 13-C).

[2] = target: T1, M4R (Homo sapiens, UniProt P08173); assay: Ca2+ flux assay in CHO-K1 cells expressing human M4R; type: cell-based; set-up: expressed in transfected cells; host or cells: CHO-K1; conditions: read-out: IP for M4R
T1 sequence (P08173 1-479): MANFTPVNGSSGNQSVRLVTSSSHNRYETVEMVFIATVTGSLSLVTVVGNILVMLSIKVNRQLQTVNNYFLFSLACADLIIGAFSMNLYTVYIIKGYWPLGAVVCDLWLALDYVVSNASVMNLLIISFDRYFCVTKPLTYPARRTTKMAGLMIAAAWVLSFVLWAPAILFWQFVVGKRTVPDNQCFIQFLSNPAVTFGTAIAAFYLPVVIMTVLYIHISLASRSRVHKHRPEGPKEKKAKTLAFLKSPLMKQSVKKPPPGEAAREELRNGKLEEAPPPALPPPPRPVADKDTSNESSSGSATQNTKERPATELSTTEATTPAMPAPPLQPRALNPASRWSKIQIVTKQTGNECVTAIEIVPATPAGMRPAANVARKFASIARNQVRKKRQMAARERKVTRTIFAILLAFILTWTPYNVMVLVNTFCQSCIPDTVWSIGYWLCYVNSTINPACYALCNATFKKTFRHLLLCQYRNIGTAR

[3] = target: T2, M5R (Homo sapiens, UniProt P08912); assay: Ca2+ flux assay in CHO-K1 cells expressing human M5R; type: cell-based; set-up: expressed in transfected cells; host or cells: CHO-K1; conditions: read-out: IP for M5R
T2 sequence (P08912 1-532): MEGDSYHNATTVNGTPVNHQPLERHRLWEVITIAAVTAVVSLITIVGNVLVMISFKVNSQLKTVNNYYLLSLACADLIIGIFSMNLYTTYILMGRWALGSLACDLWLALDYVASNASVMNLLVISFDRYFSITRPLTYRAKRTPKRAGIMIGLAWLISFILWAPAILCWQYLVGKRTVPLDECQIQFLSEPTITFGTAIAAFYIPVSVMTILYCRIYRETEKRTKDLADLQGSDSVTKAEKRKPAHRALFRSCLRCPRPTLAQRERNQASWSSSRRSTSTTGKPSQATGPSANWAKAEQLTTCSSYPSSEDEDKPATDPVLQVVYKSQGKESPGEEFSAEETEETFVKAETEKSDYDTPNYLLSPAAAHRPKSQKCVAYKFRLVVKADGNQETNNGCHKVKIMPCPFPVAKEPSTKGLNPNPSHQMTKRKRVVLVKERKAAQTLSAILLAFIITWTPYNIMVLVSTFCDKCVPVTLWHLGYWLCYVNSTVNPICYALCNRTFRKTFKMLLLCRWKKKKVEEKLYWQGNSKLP

[4] = target: T3, M2R (Homo sapiens, UniProt P08172); assay: Ca2+ flux assay in CHO-K1 cells expressing human M2R; type: cell-based; set-up: expressed in transfected cells; host or cells: CHO-K1; conditions: read-out: IP for M2R
T3 sequence (P08172 1-466): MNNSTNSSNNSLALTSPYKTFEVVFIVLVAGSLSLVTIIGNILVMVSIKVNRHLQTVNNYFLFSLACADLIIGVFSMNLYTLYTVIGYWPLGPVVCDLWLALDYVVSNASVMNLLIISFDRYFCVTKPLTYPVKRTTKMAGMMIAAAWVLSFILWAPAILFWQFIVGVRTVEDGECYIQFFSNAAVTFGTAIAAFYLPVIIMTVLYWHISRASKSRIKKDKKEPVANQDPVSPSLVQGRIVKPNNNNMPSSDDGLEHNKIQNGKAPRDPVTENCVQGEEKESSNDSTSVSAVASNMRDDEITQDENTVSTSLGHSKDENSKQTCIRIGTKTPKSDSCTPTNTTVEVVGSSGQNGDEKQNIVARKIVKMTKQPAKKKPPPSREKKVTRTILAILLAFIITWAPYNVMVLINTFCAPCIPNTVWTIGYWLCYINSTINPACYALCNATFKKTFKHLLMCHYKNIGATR

| SMILES | after hyperpolarization (AHP) [1] | resting membrane potential (RMP) [1] | after depolarization (ADP) [1] | EC50 [2] [µM] | EC50 [3] [µM] | EC50 [4] [µM] |
| --- | --- | --- | --- | --- | --- | --- |
| Cn1cc(-c2ccc(Cc3cc4c(=O)n([C@H]5CCCC[C@@H]5O)cnc4c4ccccc34)cn2)cn1 [Compound C, 3-((1S,2S)-2-hydroxycyclohexyl)-6-((6-(1-methyl-1H-pyrazol-4-yl)pyridin-3-yl)methyl)benzo[h]quinazoline-4(3H)-one, reference compound] | suppressed the AHP | generated subthreshold changes in the RMP | generated an ADP | > 1 | > 1 | > 1 |
| Cc1c(Cc2ccc(-n3cccn3)cc2)cc2c(c1F)CN([C@H]1COCC[C@@H]1O)C2=O [Compound D, 4-fluoro-2-[(3S,4S)-4-hydroxytetrahydro-2H-pyran-3-yl]-5-methyl-6-[4-(1H-pyrazol-1-yl)benzyl]-2,3-dihydro-1H-isoindol-1-one] | not depolarization of RMP and suppression of AHP | not depolarization of RMP | produced significant ADP generation | > 10 | > 10 | > 10 |
